ChEMBL document CHEMBL1136997, “An atom economic synthesis and antitubercular evaluation of novel spiro-cyclohexanones” (2009)
≈ marks a conversion by molar mass, not a printed value.

These compounds were tested on Mycobacterium tuberculosis (assay: Antimycobacterial activity against log phase culture of Mycobacterium tuberculosis H37Rv by agar dilution method).
Type: functional

SMILES	MIC [µg/mL]
Cc1ccccc1/C=C1\CCC[C@@]2(C1=O)[C@@H](c1ccccc1C)[C@@H]1CSCN1[C@@]21C(=O)c2cccc3cccc1c23	0.78 (≈ 1.4 µM)
CN1C[C@H](c2ccc(Cl)cc2Cl)[C@]2(CCC/C(=C\c3ccc(Cl)cc3Cl)C2=O)[C@]12C(=O)c1cccc3cccc2c13	3.13 (≈ 5.04 µM)
O=C1c2cccc3cccc(c23)[C@]12N1CCC[C@H]1[C@H](c1ccccc1)[C@]21CCC/C(=C\c2ccccc2)C1=O	12.5 (≈ 24.5 µM)
CN1C[C@H](c2ccccc2Cl)[C@]2(CCC/C(=C\c3ccccc3Cl)C2=O)[C@]12C(=O)c1cccc3cccc2c13	6.25 (≈ 11.3 µM)
Cc1ccccc1/C=C1\CCC[C@@]2(C1=O)[C@@H](c1ccccc1C)[C@H](c1ccccc1)N[C@@]21C(=O)c2cccc3cccc1c23	1.78 (≈ 3.1 µM)
Cc1ccc(/C=C2\CCC[C@@]3(C2=O)[C@@H](c2ccc(C)cc2)[C@@H]2CSCN2[C@@]32C(=O)c3cccc4cccc2c34)cc1	6.25 (≈ 11.2 µM)
O=C1c2cccc3cccc(c23)[C@]12N[C@@H](c1ccccc1)[C@H](c1ccc(Cl)cc1Cl)[C@]21CCC/C(=C\c2ccc(Cl)cc2Cl)C1=O	0.4 (≈ 0.585 µM)
O=C1c2cccc3cccc(c23)[C@]12N1CSC[C@H]1[C@H](c1ccc(Cl)cc1Cl)[C@]21CCC/C(=C\c2ccc(Cl)cc2Cl)C1=O	0.4 (≈ 0.601 µM)
CN1C[C@H](c2ccc(Cl)cc2)[C@]2(CCC/C(=C\c3ccc(Cl)cc3)C2=O)[C@]12C(=O)c1cccc3cccc2c13	12.5 (≈ 22.6 µM)
O=C1c2cccc3cccc(c23)[C@]12N1CSC[C@H]1[C@H](c1ccccc1)[C@]21CCC/C(=C\c2ccccc2)C1=O	6.25 (≈ 11.8 µM)
O=C1c2cccc3cccc(c23)[C@]12N1CCC[C@H]1[C@H](c1ccc(Cl)cc1)[C@]21CCC/C(=C\c2ccc(Cl)cc2)C1=O	1.78 (≈ 3.08 µM)
Cc1ccc(/C=C2\CCC[C@@]3(C2=O)[C@@H](c2ccc(C)cc2)[C@H](c2ccccc2)N[C@@]32C(=O)c3cccc4cccc2c34)cc1	6.25 (≈ 10.9 µM)
O=C1c2cccc3cccc(c23)[C@]12N[C@@H](c1ccccc1)[C@H](c1ccc(Cl)cc1)[C@]21CCC/C(=C\c2ccc(Cl)cc2)C1=O	6.25 (≈ 10.2 µM)
CN1C[C@H](c2cccc(F)c2)[C@]2(CCC/C(=C\c3cccc(F)c3)C2=O)[C@]12C(=O)c1cccc3cccc2c13	12.5 (≈ 24.1 µM)
Cc1ccccc1/C=C1\CCC[C@@]2(C1=O)[C@@H](c1ccccc1C)CN(C)[C@@]21C(=O)c2cccc3cccc1c23	12.5 (≈ 24.4 µM)
O=C1c2cccc3cccc(c23)[C@]12N1CSC[C@H]1[C@H](c1ccc(F)cc1)[C@]21CCC/C(=C\c2ccc(F)cc2)C1=O	1.76 (≈ 3.12 µM)
O=C1c2cccc3cccc(c23)[C@]12N1CSC[C@H]1[C@H](c1ccc(Cl)cc1)[C@]21CCC/C(=C\c2ccc(Cl)cc2)C1=O	6.25 (≈ 10.5 µM)
O=C1c2cccc3cccc(c23)[C@]12N1CCC[C@H]1[C@H](c1ccc(F)cc1)[C@]21CCC/C(=C\c2ccc(F)cc2)C1=O	1.78 (≈ 3.26 µM)
Cc1ccc(/C=C2\CCC[C@@]3(C2=O)[C@@H](c2ccc(C)cc2)CN(C)[C@@]32C(=O)c3cccc4cccc2c34)cc1	25 (≈ 48.9 µM)
O=C1c2cccc3cccc(c23)[C@]12N[C@@H](c1ccccc1)[C@H](c1ccccc1)[C@]21CCC/C(=C\c2ccccc2)C1=O	3.13 (≈ 5.74 µM)
O=C1c2cccc3cccc(c23)[C@]12N1CCC[C@H]1[C@H](c1ccccc1Cl)[C@]21CCC/C(=C\c2ccccc2Cl)C1=O	3.13 (≈ 5.41 µM)
O=C1c2cccc3cccc(c23)[C@]12N[C@@H](c1ccccc1)[C@H](c1ccccc1Cl)[C@]21CCC/C(=C\c2ccccc2Cl)C1=O	0.78 (≈ 1.27 µM)
CN1C[C@H](c2cccc3ccccc23)[C@]2(CCC/C(=C\c3cccc4ccccc34)C2=O)[C@]12C(=O)c1cccc3cccc2c13	6.25 (≈ 10.7 µM)
CN1C[C@H](c2ccccc2)[C@]2(CCC/C(=C\c3ccccc3)C2=O)[C@]12C(=O)c1cccc3cccc2c13	12.5 (≈ 25.8 µM)
O=C1c2cccc3cccc(c23)[C@]12N[C@@H](c1ccccc1)[C@H](c1ccc(F)cc1)[C@]21CCC/C(=C\c2ccc(F)cc2)C1=O	6.25 (≈ 10.7 µM)
O=C1c2cccc3cccc(c23)[C@]12N1CSC[C@H]1[C@H](c1ccccc1Cl)[C@]21CCC/C(=C\c2ccccc2Cl)C1=O	0.78 (≈ 1.31 µM)
Cc1ccc(/C=C2\CCC[C@@]3(C2=O)[C@@H](c2ccc(C)cc2)[C@@H]2CCCN2[C@@]32C(=O)c3cccc4cccc2c34)cc1	6.25 (≈ 11.6 µM)
COc1ccc(/C=C2\CCC[C@@]3(C2=O)[C@@H](c2ccc(OC)cc2)CN(C)[C@@]32C(=O)c3cccc4cccc2c34)cc1	25 (≈ 46 µM)
